Laboratory results published in ChEMBL document CHEMBL1154467, “QSAR study about ATP-sensitive potassium channel activation of cromakalim analogues using CP-MLR approach” (Eur J Med Chem, 2008).

target: ATP-binding cassette sub-family C member 9 (Rattus norvegicus) (UniProt Q63563); assay: […] of SUR2A/kir6.2 channel in Wistar rat thoracic aorta assessed as relaxation of Kcl-induced contraction; type: tissue-based
Sequence (Q63563 whole entry): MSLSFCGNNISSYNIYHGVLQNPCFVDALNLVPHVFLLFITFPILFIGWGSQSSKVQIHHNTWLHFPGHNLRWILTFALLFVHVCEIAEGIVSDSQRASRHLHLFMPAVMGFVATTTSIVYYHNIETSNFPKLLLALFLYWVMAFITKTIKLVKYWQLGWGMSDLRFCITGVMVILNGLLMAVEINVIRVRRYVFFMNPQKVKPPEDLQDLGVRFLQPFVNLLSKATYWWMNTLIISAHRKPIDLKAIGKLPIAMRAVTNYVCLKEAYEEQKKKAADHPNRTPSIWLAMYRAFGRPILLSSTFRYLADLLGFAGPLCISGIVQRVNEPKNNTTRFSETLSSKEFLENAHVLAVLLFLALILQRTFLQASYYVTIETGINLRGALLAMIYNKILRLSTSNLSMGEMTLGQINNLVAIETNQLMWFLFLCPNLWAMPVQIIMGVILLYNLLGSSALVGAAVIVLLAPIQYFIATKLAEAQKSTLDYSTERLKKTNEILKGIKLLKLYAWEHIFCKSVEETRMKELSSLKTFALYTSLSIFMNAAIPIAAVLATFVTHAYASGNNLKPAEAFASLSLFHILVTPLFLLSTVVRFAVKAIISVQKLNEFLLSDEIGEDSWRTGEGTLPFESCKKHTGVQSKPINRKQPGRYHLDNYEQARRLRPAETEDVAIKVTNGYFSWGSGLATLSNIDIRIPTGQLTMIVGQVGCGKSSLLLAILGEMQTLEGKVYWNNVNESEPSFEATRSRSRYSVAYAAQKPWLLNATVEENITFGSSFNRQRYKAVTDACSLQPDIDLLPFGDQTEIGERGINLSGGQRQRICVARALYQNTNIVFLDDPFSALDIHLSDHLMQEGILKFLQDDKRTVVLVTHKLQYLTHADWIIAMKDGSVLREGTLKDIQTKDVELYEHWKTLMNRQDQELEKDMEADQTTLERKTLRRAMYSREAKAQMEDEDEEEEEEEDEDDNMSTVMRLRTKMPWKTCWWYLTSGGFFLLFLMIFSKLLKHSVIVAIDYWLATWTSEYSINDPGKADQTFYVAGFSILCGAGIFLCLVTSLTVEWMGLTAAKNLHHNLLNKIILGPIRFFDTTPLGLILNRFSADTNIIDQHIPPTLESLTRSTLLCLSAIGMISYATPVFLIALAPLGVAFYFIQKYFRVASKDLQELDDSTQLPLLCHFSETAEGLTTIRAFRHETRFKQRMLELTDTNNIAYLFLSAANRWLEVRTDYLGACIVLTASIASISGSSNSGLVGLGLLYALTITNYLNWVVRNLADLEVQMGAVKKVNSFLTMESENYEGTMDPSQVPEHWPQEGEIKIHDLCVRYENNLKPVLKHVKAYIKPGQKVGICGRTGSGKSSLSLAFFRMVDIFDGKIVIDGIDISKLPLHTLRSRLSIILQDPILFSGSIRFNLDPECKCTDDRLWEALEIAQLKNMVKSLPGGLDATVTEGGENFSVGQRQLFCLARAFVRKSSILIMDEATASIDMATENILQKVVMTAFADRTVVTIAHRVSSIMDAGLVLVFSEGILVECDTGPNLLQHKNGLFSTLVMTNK

Row | Compound | pED50
1 | CCOC(=O)NC1CC(C)(C)Oc2ccc(Br)cc21 (configuration not stated) | 4.59
2 | CCOC(=O)NC1CC(C)(C)Oc2ccc(Cl)cc21 (configuration not stated) | 4.42
3 | CC1(C)CC(NC(=O)NS(=O)(=O)c2ccc(Cl)cc2)c2cc(Cl)ccc2O1 (configuration not stated) | 4.29
4 | CCNC(=S)NC1CC(C)(C)Oc2ccc(Br)cc21 (configuration not stated) | 5.43
5 | CC1(C)CC(NC(=S)NCc2ccccc2)c2cc(Cl)ccc2O1 (configuration not stated) | 4.7
6 | CC1(C)CC(NC(=S)NCc2ccccc2)c2cc(F)ccc2O1 (configuration not stated) | 5.37
7 | CC1(C)CC(NC(=O)NS(=O)(=O)c2ccccc2)c2cc(Cl)ccc2O1 (configuration not stated) | 3.68
8 | CC1(C)Oc2ccc(C#N)cc2C(N2CCCC2=O)C1O (racemic) | 6.89
9 | CCNC(=S)NC1CC(C)(C)Oc2ccc(Cl)cc21 (configuration not stated) | 5.09
10 | CC(=O)NC1CC(C)(C)Oc2ccc(Br)cc21 (configuration not stated) | 5.19
11 | CC1(C)CC(NC(=S)NCc2ccccc2)c2cc(Br)ccc2O1 (configuration not stated) | 4.61
12 | CC1(C)CC(NC(=O)NCc2ccccc2)c2cc(Cl)ccc2O1 (configuration not stated) | 4.82
13 | CC1(C)CC(NC(=O)NCc2ccccc2)c2cc(Br)ccc2O1 (configuration not stated) | < 3.52
14 | Cc1ccc(S(=O)(=O)NC(=O)NC2CC(C)(C)Oc3ccc(Cl)cc32)cc1 (configuration not stated) | 4.2

Continued, values first:

Row | pED50 | Compound
15 | 3.96 | CC(C)NC(=O)NC1CC(C)(C)Oc2ccc(F)cc21 (configuration not stated)
16 | 4.33 | CC(=O)NC1CC(C)(C)Oc2ccc(F)cc21 (configuration not stated)
17 | < 3.52 | CC(C)NC(=O)NC1CC(C)(C)Oc2ccc(Br)cc21 (configuration not stated)
18 | 4.96 | CC(C)NC(=S)NC1CC(C)(C)Oc2ccc(Cl)cc21 (configuration not stated)
19 | 5.06 | CC(C)NC(=S)NC1CC(C)(C)Oc2ccc(Br)cc21 (configuration not stated)
20 | 5.17 | CCNC(=O)NC1CC(C)(C)Oc2ccc(Cl)cc21 (configuration not stated)
21 | 4.37 | CCNC(=O)NC1CC(C)(C)Oc2ccc(F)cc21 (configuration not stated)
22 | 5.12 | CCNC(=O)NC1CC(C)(C)Oc2ccc(Br)cc21 (configuration not stated)
23 | 3.84 | CC(C)NC(=O)NC1CC(C)(C)Oc2ccc(Cl)cc21 (configuration not stated)
24 | 4.14 | CCOC(=O)NC1CC(C)(C)Oc2ccc(F)cc21 (configuration not stated)
25 | 4.75 | CCNC(=S)NC1CC(C)(C)Oc2ccc(F)cc21 (configuration not stated)
26 | 5.18 | CC(=O)NC1CC(C)(C)Oc2ccc(Cl)cc21 (configuration not stated)
27 | 4.73 | CC(C)NC(=S)NC1CC(C)(C)Oc2ccc(F)cc21 (configuration not stated)
